Measured values published in ChEMBL document CHEMBL4342421, “Current scenario of tetrazole hybrids for antibacterial activity” (Eur J Med Chem, 2019).
≈ marks a conversion by molar mass, not a printed value.

Experiments:
Format in all cases: functional
[1] = system: Bacillus subtilis; assay: Antimicrobial activity against Bacillus subtilis
[2] = system: Escherichia coli; assay: Antimicrobial activity against Escherichia coli
[3] = system: Staphylococcus aureus; assay: Antimicrobial activity against Staphylococcus aureus
[4] = system: Candida albicans; assay: Antifungal activity against Candida albicans
[5] = system: Pseudomonas aeruginosa; assay: Antimicrobial activity against Pseudomonas aeruginosa
[6] = system: Aspergillus niger; assay: Antifungal activity against Aspergillus niger

SMILES	MIC [1] [µg/mL]	MIC [2] [µg/mL]	MIC [3] [µg/mL]	MIC [4] [µg/mL]	MIC [5] [µg/mL]	MIC [6] [µg/mL]
O=C1S/C(=C\c2ccccc2)C(=O)N1Cc1ccc(-c2ccccc2-c2nnn[nH]2)cc1	7.75 to 35.4 (≈ 17.6 to 80.6 µM)	7.75 to 35.4 (≈ 17.6 to 80.6 µM)				
Cc1ccc2c(c1)cc(/C=C/C(=O)c1ccc(Cl)cc1)c1nnnn12		6.25 to 100 (≈ 17.9 to 287 µM)	6.25 to 100 (≈ 17.9 to 287 µM)	6.25 to 100 (≈ 17.9 to 287 µM)	6.25 to 100 (≈ 17.9 to 287 µM)	6.25 to 100 (≈ 17.9 to 287 µM)
Cc1ccc2c(c1)cc(C1CC(c3ccc(Cl)cc3)=NN1C(N)=S)c1nnnn12 (configuration not stated)		3.12 to 100 (≈ 7.41 to 237 µM)	3.12 to 100 (≈ 7.41 to 237 µM)	3.12 to 100 (≈ 7.41 to 237 µM)	3.12 to 100 (≈ 7.41 to 237 µM)	3.12 to 100 (≈ 7.41 to 237 µM)
Cc1ccc2c(c1)cc(C1CC(c3ccccc3)=NN1C(N)=S)c1nnnn12 (configuration not stated)		3.12 to 100 (≈ 8.07 to 258 µM)	3.12 to 100 (≈ 8.07 to 258 µM)	3.12 to 100 (≈ 8.07 to 258 µM)	3.12 to 100 (≈ 8.07 to 258 µM)	3.12 to 100 (≈ 8.07 to 258 µM)
c1ccc(C(c2ccccc2)(c2ccccc2)n2nnnc2-c2ccccc2-c2ccc(CNn3cnnc3)cc2)cc1	24.8 (≈ 44.3 µM)	22.4 (≈ 40 µM)				
COc1ccc(Nc2c(-c3cc4ccccc4n4nnnc34)nc3sccn23)cc1		> 320	> 320		> 320	
COc1cc(/C=C2\SC(=O)N(Cc3ccc(-c4ccccc4-c4nnn[nH]4)cc3)C2=O)cc(OC)c1OC	7.75 to 35.4 (≈ 14.6 to 66.9 µM)	7.75 to 35.4 (≈ 14.6 to 66.9 µM)				
c1ccc(CCNc2c(-c3cc4ccccc4n4nnnc34)nc3sccn23)cc1		> 320	> 320		> 320	
Cc1cccc2oc(-c3ccc(F)cc3)c(OCc3nnn[nH]3)c(=O)c12	50 to 400 (≈ 142 to 1140 µM)	50 to 400 (≈ 142 to 1140 µM)	50 to 400 (≈ 142 to 1140 µM)		50 to 400 (≈ 142 to 1140 µM)	
COc1cc(/C=C2\SC(=O)N(Cc3ccc(-c4ccccc4-c4nnn[nH]4)cc3)C2=O)cc(OC)c1	7.75 to 35.4 (≈ 15.5 to 70.9 µM)	7.75 to 35.4 (≈ 15.5 to 70.9 µM)				
N#Cc1cn2c(NCCc3ccccc3)c(-c3cc4ccccc4n4nnnc34)nc2s1		> 320	> 320		> 320	
Cc1ccc2cc(/C=C/C(=O)c3ccccc3)c3nnnn3c2c1		6.25 to 100 (≈ 19.9 to 318 µM)	6.25 to 100 (≈ 19.9 to 318 µM)	6.25 to 100 (≈ 19.9 to 318 µM)	6.25 to 100 (≈ 19.9 to 318 µM)	6.25 to 100 (≈ 19.9 to 318 µM)
Cc1ccc2cc(C3CC(c4ccccn4)=NN3C(N)=S)c3nnnn3c2c1 (configuration not stated)		3.12 to 100 (≈ 8.04 to 257 µM)	3.12 to 100 (≈ 8.04 to 257 µM)	3.12 to 100 (≈ 8.04 to 257 µM)	3.12 to 100 (≈ 8.04 to 257 µM)	3.12 to 100 (≈ 8.04 to 257 µM)
CC(C)(C)Nc1c(-c2cc3ccccc3n3nnnc23)nc2sc(C#N)cn12		> 320	> 320		> 320	
O=c1c(OCc2nnn[nH]2)c(-c2ccc(F)cc2)oc2cc(Cl)cc(Cl)c12	50 to 400 (≈ 123 to 982 µM)	50 to 400 (≈ 123 to 982 µM)	50 to 400 (≈ 123 to 982 µM)		50 to 400 (≈ 123 to 982 µM)	
O=C1S/C(=C\c2ccc(Cl)cc2)C(=O)N1Cc1ccc(-c2ccccc2-c2nnn[nH]2)cc1	7.75 to 35.4 (≈ 16.4 to 74.7 µM)	7.75 to 35.4 (≈ 16.4 to 74.7 µM)				
Cc1ccc2cc(/C=C/C(=O)c3ccccn3)c3nnnn3c2c1		6.25 to 100 (≈ 19.8 to 317 µM)	6.25 to 100 (≈ 19.8 to 317 µM)	6.25 to 100 (≈ 19.8 to 317 µM)	6.25 to 100 (≈ 19.8 to 317 µM)	6.25 to 100 (≈ 19.8 to 317 µM)
Cc1ccc2cc(/C=C/C(=O)c3ccc(Cl)cc3)c3nnnn3c2c1		6.25 to 100 (≈ 17.9 to 287 µM)	6.25 to 100 (≈ 17.9 to 287 µM)	6.25 to 100 (≈ 17.9 to 287 µM)	6.25 to 100 (≈ 17.9 to 287 µM)	6.25 to 100 (≈ 17.9 to 287 µM)
COc1cc(Cc2cnc(N)nc2N)cc(OC)c1OC [TRIMETHOPRIM]		125 (≈ 431 µM)	250 (≈ 861 µM)		500 (≈ 1720 µM)	

Further lines, results first:

MIC [1] [µg/mL]	MIC [2] [µg/mL]	MIC [3] [µg/mL]	MIC [4] [µg/mL]	MIC [5] [µg/mL]	MIC [6] [µg/mL]	SMILES
	3.12 to 100 (≈ 7.41 to 237 µM)	3.12 to 100 (≈ 7.41 to 237 µM)	3.12 to 100 (≈ 7.41 to 237 µM)	3.12 to 100 (≈ 7.41 to 237 µM)	3.12 to 100 (≈ 7.41 to 237 µM)	Cc1ccc2cc(C3CC(c4ccc(Cl)cc4)=NN3C(N)=S)c3nnnn3c2c1 (configuration not stated)
7.75 to 35.4 (≈ 15.5 to 70.9 µM)	7.75 to 35.4 (≈ 15.5 to 70.9 µM)					COc1ccc(/C=C2\SC(=O)N(Cc3ccc(-c4ccccc4-c4nnn[nH]4)cc3)C2=O)c(OC)c1
50 to 400 (≈ 134 to 1070 µM)	50 to 400 (≈ 134 to 1070 µM)	50 to 400 (≈ 134 to 1070 µM)		50 to 400 (≈ 134 to 1070 µM)		O=c1c(OCc2nnn[nH]2)c(-c2ccc(F)cc2)oc2cc(Cl)ccc12
	6.25 to 100 (≈ 19.5 to 312 µM)	6.25 to 100 (≈ 19.5 to 312 µM)	6.25 to 100 (≈ 19.5 to 312 µM)	6.25 to 100 (≈ 19.5 to 312 µM)	6.25 to 100 (≈ 19.5 to 312 µM)	Cc1ccc2cc(/C=C/C(=O)c3cccs3)c3nnnn3c2c1
	125 to 1000 (≈ 584 to 4670 µM)	125 to 1000 (≈ 584 to 4670 µM)		125 to 1000 (≈ 584 to 4670 µM)		c1cc(-c2nnn[nH]2)cc(-c2nnn[nH]2)c1
	6.25 to 100 (≈ 19.8 to 317 µM)	6.25 to 100 (≈ 19.8 to 317 µM)	6.25 to 100 (≈ 19.8 to 317 µM)	6.25 to 100 (≈ 19.8 to 317 µM)	6.25 to 100 (≈ 19.8 to 317 µM)	Cc1ccc2c(c1)cc(/C=C/C(=O)c1ccccn1)c1nnnn12
	3.12 to 100 (≈ 8.04 to 257 µM)	3.12 to 100 (≈ 8.04 to 257 µM)	3.12 to 100 (≈ 8.04 to 257 µM)	3.12 to 100 (≈ 8.04 to 257 µM)	3.12 to 100 (≈ 8.04 to 257 µM)	Cc1ccc2c(c1)cc(C1CC(c3ccccn3)=NN1C(N)=S)c1nnnn12 (configuration not stated)
50 to 400 (≈ 142 to 1140 µM)	50 to 400 (≈ 142 to 1140 µM)	50 to 400 (≈ 142 to 1140 µM)		50 to 400 (≈ 142 to 1140 µM)		Cc1ccc2c(=O)c(OCc3nnn[nH]3)c(-c3ccc(F)cc3)oc2c1
7.75 to 35.4 (≈ 16.9 to 77.4 µM)	7.75 to 35.4 (≈ 16.9 to 77.4 µM)					O=C1S/C(=C\c2ccc(F)cc2)C(=O)N1Cc1ccc(-c2ccccc2-c2nnn[nH]2)cc1
	> 320	> 320		> 320		Fc1ccc2c(c1)sc1nc(-c3cc4ccccc4n4nnnc34)c(NCCc3ccccc3)n12
	6.25 to 100 (≈ 19.9 to 318 µM)	6.25 to 100 (≈ 19.9 to 318 µM)	6.25 to 100 (≈ 19.9 to 318 µM)	6.25 to 100 (≈ 19.9 to 318 µM)	6.25 to 100 (≈ 19.9 to 318 µM)	Cc1ccc2c(c1)cc(/C=C/C(=O)c1ccccc1)c1nnnn12
7.75 to 35.4 (≈ 16.4 to 74.7 µM)	7.75 to 35.4 (≈ 16.4 to 74.7 µM)					O=C1S/C(=C\c2ccccc2Cl)C(=O)N1Cc1ccc(-c2ccccc2-c2nnn[nH]2)cc1
	3.12 to 100 (≈ 7.94 to 254 µM)	3.12 to 100 (≈ 7.94 to 254 µM)	3.12 to 100 (≈ 7.94 to 254 µM)	3.12 to 100 (≈ 7.94 to 254 µM)	3.12 to 100 (≈ 7.94 to 254 µM)	Cc1ccc2c(c1)cc(C1CC(c3cccs3)=NN1C(N)=S)c1nnnn12 (configuration not stated)
	6.25 to 100 (≈ 19.5 to 312 µM)	6.25 to 100 (≈ 19.5 to 312 µM)	6.25 to 100 (≈ 19.5 to 312 µM)	6.25 to 100 (≈ 19.5 to 312 µM)	6.25 to 100 (≈ 19.5 to 312 µM)	Cc1ccc2c(c1)cc(/C=C/C(=O)c1cccs1)c1nnnn12
	> 320	> 320		> 320		COc1ccc(Nc2c(-c3cc4ccccc4n4nnnc34)nc3sc(C#N)cn23)cc1
	> 320	> 320		> 320		CC(C)(C)Nc1c(-c2cc3ccccc3n3nnnc23)nc2sccn12
	3.12 to 100 (≈ 8.07 to 258 µM)	3.12 to 100 (≈ 8.07 to 258 µM)	3.12 to 100 (≈ 8.07 to 258 µM)	3.12 to 100 (≈ 8.07 to 258 µM)	3.12 to 100 (≈ 8.07 to 258 µM)	Cc1ccc2cc(C3CC(c4ccccc4)=NN3C(N)=S)c3nnnn3c2c1 (configuration not stated)
	> 320	> 320		> 320		c1ccc2c(c1)cc(-c1nc3sccn3c1NC1CCCCC1)c1nnnn12
	6.25 to 100 (≈ 18.1 to 290 µM)	6.25 to 100 (≈ 18.1 to 290 µM)	6.25 to 100 (≈ 18.1 to 290 µM)	6.25 to 100 (≈ 18.1 to 290 µM)	6.25 to 100 (≈ 18.1 to 290 µM)	COc1ccc(C(=O)/C=C/c2cc3ccc(C)cc3n3nnnc23)cc1
	> 320	> 320		> 320		N#Cc1cn2c(NC3CCCCC3)c(-c3cc4ccccc4n4nnnc34)nc2s1
7.75 to 35.4 (≈ 15.5 to 70.9 µM)	7.75 to 35.4 (≈ 15.5 to 70.9 µM)					COc1ccc(/C=C2\SC(=O)N(Cc3ccc(-c4ccccc4-c4nnn[nH]4)cc3)C2=O)cc1OC
	3.12 to 100 (≈ 7.94 to 254 µM)	3.12 to 100 (≈ 7.94 to 254 µM)	3.12 to 100 (≈ 7.94 to 254 µM)	3.12 to 100 (≈ 7.94 to 254 µM)	3.12 to 100 (≈ 7.94 to 254 µM)	Cc1ccc2cc(C3CC(c4cccs4)=NN3C(N)=S)c3nnnn3c2c1 (configuration not stated)
	6.25 to 100 (≈ 18.1 to 290 µM)	6.25 to 100 (≈ 18.1 to 290 µM)	6.25 to 100 (≈ 18.1 to 290 µM)	6.25 to 100 (≈ 18.1 to 290 µM)	6.25 to 100 (≈ 18.1 to 290 µM)	COc1ccc(C(=O)/C=C/c2cc3cc(C)ccc3n3nnnc23)cc1
